Results as given in patent US20050112573A1, “Method of detecting toxic substance” (priority 2001, published 2005).

System: yeast genes (level of expressed mRNA)
Assay: DNA chip analysis of expressed mRNA of yeast genes after 2 h culture with a toxic chemical substance
Assay type: cell-based, Saccharomyces cerevisiae S288C
Description: Yeast (Saccharomyces cerevtisiae S288C (α SUC2mal mel gap2 CUP1)) were cultured at 25° C. on YPD medium (yeast extract 1%, polypepton 2%, glucose 2%). One of toxic chemical substances was added to the cell at logarithmic growth phase, and the cell was further cultured for two hours. Cell was cultured without any chemical substance in the same condition, and was used as control. Concentrations of the chemical substances were defined to inhibit the growth of the yeast but not lead to death.
After the completion of cultivation, the culture was centrifuged to collect the cells. To the cells, sodium acetate buffer (50 mM sodium acetate, 10 mM EDTA, 1% SDS) was added, and the mixture was shaken at 65° C. for five minutes, followed by returning to room temperature, and obtaining the supernatant, which procedure was repeated two times. To the supernatant, ½ amount of a solution of phenol/chloroform was added, and the mixture was centrifuged to give a supernatant, which was added with an equal amount of chloroform, and the mixture was centrifuged to give a supernatant. To the supernatant, an equal amount of isopropanol containing 0.3 M sodium acetate was added, and the mixture was allowed to stand at room temperature for 30 minutes, after which the mixture was centrifuged to give a sediment of the whole RNAs. Seventy % ethanol was added to the sediment, and the mixture was again centrifuged to give a sediment, which was then dried and dissolved in water. mRNA was isolated from the whole RNAs as followings. In view of the fact that a poly A chain is attached to the 3′ terminus of mRNA, a polynucleotide having a poly T structure which was immobilized on the surface of latex beads was used to trap the mRNA, and then the mRNA was washed and eluted with spine column (Oligotex-dT30<Super>mRNA Purification Kit, Takara). Reverse transcription of the mRNA was conducted with a reverse transcriptase (Super Script II Reverse Transcriptase; catalogue No. 18064-014, GibcoBRL) using fluorescence-labeled nucleotides to give cDNAs that were introduced with Cy3-dUTP or Cy5-dUTP during the reverse transcription.
The labeled cDNAs were dissolved in TE buffer (10 mM Tris-HCl/1 mM EDTA, pH8.0), and the solution was dropped on the DNA chip containing the whole genes of yeast (DNA Chip Research Inc. Japan) so that the cDNAs were hybridized on the DNA chip at 65° C. for over 12 hours. The fluoresces intensity of the DNA chip was read with a scanner, and the ratio relative to the fluorescence intensity resulting from the absence of chemical substance was estimated as the following, which is shown in Tables 1 to 9: [formula]
In the Tables, “Intensity” indicated in the rightmost column is a value of the level of expressed mRNA of each gene in control cells as divided by the average level of the expressions of the whole genes.

## N#Cc1c(Cl)c(Cl)c(Cl)c(C#N)c1Cl [(9), 2,4,5,6-tetrachloro-1,3-benzenedicarbonitrile]
Yeast gene YAR010C
  The level of expressed mRNA in the presence of chemical substance/The level of expressed mRNA in the absence of chemical substance: 1.2
Yeast gene YBL005W-A
  The level of expressed mRNA in the presence of chemical substance/The level of expressed mRNA in the absence of chemical substance: 0.8
Yeast gene YBL041W
  The level of expressed mRNA in the presence of chemical substance/The level of expressed mRNA in the absence of chemical substance: 2.8
Yeast gene YBL043W
  The level of expressed mRNA in the presence of chemical substance/The level of expressed mRNA in the absence of chemical substance: 0.5
Yeast gene YBL078C
  The level of expressed mRNA in the presence of chemical substance/The level of expressed mRNA in the absence of chemical substance: 12.3
Yeast gene YBR214W
  The level of expressed mRNA in the presence of chemical substance/The level of expressed mRNA in the absence of chemical substance: 2.2
Yeast gene YCL020W
  The level of expressed mRNA in the presence of chemical substance/The level of expressed mRNA in the absence of chemical substance: 0.9
Yeast gene YCL027W
  The level of expressed mRNA in the presence of chemical substance/The level of expressed mRNA in the absence of chemical substance: 0.7
Yeast gene YCR004C
  The level of expressed mRNA in the presence of chemical substance/The level of expressed mRNA in the absence of chemical substance: 4.7
Yeast gene YCR071C
  The level of expressed mRNA in the presence of chemical substance/The level of expressed mRNA in the absence of chemical substance: 0.6
Yeast gene YCR088W
  The level of expressed mRNA in the presence of chemical substance/The level of expressed mRNA in the absence of chemical substance: 0.8
Yeast gene YDL008W
  The level of expressed mRNA in the presence of chemical substance/The level of expressed mRNA in the absence of chemical substance: 2.3
Yeast gene YDL238C
  The level of expressed mRNA in the presence of chemical substance/The level of expressed mRNA in the absence of chemical substance: 1.7
Yeast gene YDR055W
  The level of expressed mRNA in the presence of chemical substance/The level of expressed mRNA in the absence of chemical substance: 0.8
Yeast gene YDR084C
  The level of expressed mRNA in the presence of chemical substance/The level of expressed mRNA in the absence of chemical substance: 0.6
Yeast gene YDR085C
  The level of expressed mRNA in the presence of chemical substance/The level of expressed mRNA in the absence of chemical substance: 0.4
Yeast gene YDR104C
  The level of expressed mRNA in the presence of chemical substance/The level of expressed mRNA in the absence of chemical substance: 2.8
Yeast gene YDR115W
  The level of expressed mRNA in the presence of chemical substance/The level of expressed mRNA in the absence of chemical substance: 1.1
Yeast gene YDR259C
  The level of expressed mRNA in the presence of chemical substance/The level of expressed mRNA in the absence of chemical substance: 1.0
Yeast gene YDR315C
  The level of expressed mRNA in the presence of chemical substance/The level of expressed mRNA in the absence of chemical substance: 1.1
Yeast gene YDR358W
  The level of expressed mRNA in the presence of chemical substance/The level of expressed mRNA in the absence of chemical substance: 2.9
Yeast gene YDR388W
  The level of expressed mRNA in the presence of chemical substance/The level of expressed mRNA in the absence of chemical substance: 1.4
Yeast gene YDR432W
  The level of expressed mRNA in the presence of chemical substance/The level of expressed mRNA in the absence of chemical substance: 0.7
Yeast gene YDR481C
  The level of expressed mRNA in the presence of chemical substance/The level of expressed mRNA in the absence of chemical substance: 1.9
Yeast gene YDR510W
  The level of expressed mRNA in the presence of chemical substance/The level of expressed mRNA in the absence of chemical substance: 2.7
Yeast gene YEL042W
  The level of expressed mRNA in the presence of chemical substance/The level of expressed mRNA in the absence of chemical substance: 0.2
Yeast gene YEL066W
  The level of expressed mRNA in the presence of chemical substance/The level of expressed mRNA in the absence of chemical substance: 1.3
Yeast gene YER039C
  The level of expressed mRNA in the presence of chemical substance/The level of expressed mRNA in the absence of chemical substance: 1.2
Yeast gene YER107C
  The level of expressed mRNA in the presence of chemical substance/The level of expressed mRNA in the absence of chemical substance: 0.4
Yeast gene YER130C
  The level of expressed mRNA in the presence of chemical substance/The level of expressed mRNA in the absence of chemical substance: 0.5
Yeast gene YFL028C
  The level of expressed mRNA in the presence of chemical substance/The level of expressed mRNA in the absence of chemical substance: 2.7
Yeast gene YFL043C
  The level of expressed mRNA in the presence of chemical substance/The level of expressed mRNA in the absence of chemical substance: 2.2
Yeast gene YGL229C
  The level of expressed mRNA in the presence of chemical substance/The level of expressed mRNA in the absence of chemical substance: 1.8
Yeast gene YGR136W
  The level of expressed mRNA in the presence of chemical substance/The level of expressed mRNA in the absence of chemical substance: 2.1
Yeast gene YGR189C
  The level of expressed mRNA in the presence of chemical substance/The level of expressed mRNA in the absence of chemical substance: 0.3
Yeast gene YGR213C
  The level of expressed mRNA in the presence of chemical substance/The level of expressed mRNA in the absence of chemical substance: 7.5
Yeast gene YGR257C
  The level of expressed mRNA in the presence of chemical substance/The level of expressed mRNA in the absence of chemical substance: 1.5
Yeast gene YHR004C
  The level of expressed mRNA in the presence of chemical substance/The level of expressed mRNA in the absence of chemical substance: 1.1
Yeast gene YHR071W
  The level of expressed mRNA in the presence of chemical substance/The level of expressed mRNA in the absence of chemical substance: 1.0
Yeast gene YHR139C
  The level of expressed mRNA in the presence of chemical substance/The level of expressed mRNA in the absence of chemical substance: 107.2
Yeast gene YHR142W
  The level of expressed mRNA in the presence of chemical substance/The level of expressed mRNA in the absence of chemical substance: 0.4
Yeast gene YIL123W
  The level of expressed mRNA in the presence of chemical substance/The level of expressed mRNA in the absence of chemical substance: 0.1
Yeast gene YIL140W
  The level of expressed mRNA in the presence of chemical substance/The level of expressed mRNA in the absence of chemical substance: 0.7
Yeast gene YJL073W
  The level of expressed mRNA in the presence of chemical substance/The level of expressed mRNA in the absence of chemical substance: 1.7
Yeast gene YJL089W
  The level of expressed mRNA in the presence of chemical substance/The level of expressed mRNA in the absence of chemical substance: 1.6
Yeast gene YJL116C
  The level of expressed mRNA in the presence of chemical substance/The level of expressed mRNA in the absence of chemical substance: 2.4
Yeast gene YJR004C
  The level of expressed mRNA in the presence of chemical substance/The level of expressed mRNA in the absence of chemical substance: 0.3
Yeast gene YJR086W
  The level of expressed mRNA in the presence of chemical substance/The level of expressed mRNA in the absence of chemical substance: 1.4
Yeast gene YKL008C
  The level of expressed mRNA in the presence of chemical substance/The level of expressed mRNA in the absence of chemical substance: 0.3
Yeast gene YKL013C
  The level of expressed mRNA in the presence of chemical substance/The level of expressed mRNA in the absence of chemical substance: 1.5
